Data from patent publication US20100260791A1, “CHLAMYDIA ANTIGENS” (President and Fellows of Harvard, priority 2007, published 2010).

Tests used:
[1] = test system: C. trachomatis-specific CD8^+ murine T cells; experiment: IFN-γ ELISA of C. trachomatis-specific CD8+ murine T cells stimulated with peptide-pulsed macrophages; type: cell-based, mouse; settings: CT242 and CT812 peptides (CD8+ Ag); for IFN-γ Produced −fold: fold-increase of IFN-γ production compared to untreated T-lymphocytes (footnote); for IFN-γ Produced ng: mean (± standard deviation) of duplicate samples
Description: (§1) A library of cells or viruses containing polynucleotides encoding C. trachomatis polypeptides, polypeptide fragments, or fusion proteins may be screened to determine which of the polypeptides, polypeptide fragments, or fusion proteins encoded by the polynucleotides are immunogenic. This may be accomplished by contacting each member of the library with a second cell (e.g., a macrophage or antigen presenting cell) capable of endocytosing the cell of the C. trachomatis library, and displaying portions of the expressed polypeptide of the library on the surface of the second cell (see, e.g., U.S. Pat. No. 6,008,415). The second cell is then contacted with a C. trachomatis-specific T cell (e.g., a C. trachomatis-specific CD4^+ or CD8^+ T cell) from an organism previously infected with C. trachomatis. The second cell may also be fixed (e.g., using paraformaldehyde) prior to contacting with a C. trachomatis-specific T cell. A C. trachomatis-specific T cell capable of binding a presented portion of the C. trachomatis protein, will result in secretion of cytokines. Cytokine secretion (e.g., secretion of IFN-γ, IL-2, or TNF) may be assayed for as known in the art, for example, using an ELISA assay.
(§2) In particular, murine H2^b bone marrow-derived macrophages (BMMs) were seeded at a density of 1×10^5 cells/well in 96-well plates. Fourteen to sixteen hours later, an aliquot of a frozen C. trachomatis library was thawed. The media was aspirated from the BMMs and replaced with a library aliquot and 60 μL of fresh RP-10 media. After 1 hour at 37° C., the BMMs were washed with PBS, 100 μL of RP-10 media added, and the cells incubated an additional hour at 37° C. The BMMs were then fixed with 1% paraformaldehyde for 15 minutes and washed extensively with PBS. […] T cells (either C. trachomatis-specific CD4^+ or CD8^+ murine T cells; 1×10^5) were added to each well in 200 μL of RP-10 media. Plates were incubated for 18-24 hours at 37° C. and the amount of IFN-γ in the supernatant of each well determined through the use of an IFN-γ ELISA assay (Endogen).
(§3) Another way to identify an antigenic peptide is to pulse the polypeptide, polypeptide fragment, or fusion protein onto macrophages and screen for their ability to activate C. trachomatis-specific CD4^+ or CD8^+ murine T cells (as described above). Peptides used in such assays can be synthesized using methods known in the art. A polypeptide, polypeptide fragment, or fusion protein that is capable of activating the C. trachomatis-specific CD4^+ or CD8^+ murine T cells is deemed immunogenic.
Pools of activated CD8^+ murine T cells for use in the identification of immunogenic C. trachomatis polypeptides, polypeptide fragments, and fusion proteins may be obtained using methods known in the art. Typically, in screening for antigens to pathogenic organisms, CD8^+ T cells are prepared from a mammal previously infected with the pathogenic organism. This preparation contains CD8^+ T cells specific for antigens from the pathogen.
C. trachomatis-specific CD8^+ T cells were harvested from mice as follows. A C57BL/6 mouse was injected intraperitoneally with 10^7 infection-forming units of C. trachomatis. Fourteen days later the mouse was euthanized and the spleen was harvested. The spleen was mashed through a 70 μm screen to create a single cell solution of splenocytes. The CD8^+ T cells were isolated from the splenocytes using anti-CD8 antibodies bound to MACS™ magnetic beads and separation protocols standard in the art (see, for e.g., MACS™ technology available from Miltenyi Biotec Inc., Auburn, Calif.). The isolated CD8^+ cells were added to macrophages of the same haplotype (H2^b), which were infected with C. trachomatis 18 hours prior in a 24-well dish. Irradiated splenocytes from a naïve mouse (C57BL/6) were added as feeder cells in media containing IL-2. The cells were incubated for 10 days during which the C. trachomatis-specific CD8^+ T cells were stimulated by the infected macrophages and replicated. […]

[2] = test system: C. trachomatis-specific CD4^+ murine T cells; experiment: IFN-γ ELISA of C. trachomatis-specific CD4+ murine T cells stimulated with peptide-pulsed macrophages; type: cell-based, mouse; settings: CT144 peptides (CD4+ Ag); for IFN-γ Produced −fold: fold-increase of IFN-γ production compared to untreated T-lymphocytes (footnote); for IFN-γ Produced ng: mean (± standard deviation) of duplicate samples
Description: as §1, §2, §3
Activated CD4^+ murine T cells for use in the identification of immunogenic C. trachomatis polypeptides, polypeptide fragments, and fusion proteins may be obtained using methods known in the art. Splenocytes from mice were isolated 21 days after infection with C. trachomatis serovar L2 and cultured with irradiated (2,000 rad) bone marrow-derived dendritic cells, UV-inactivated C. trachomatis serovar L2, and naïve syngeneic splenocytes in RP-10 (RPMI medium 1640 supplemented with 10% fetal calf serum, L-glutamine, HEPES, 50 μM 2-β-mercaptoethanol, 50 units/ml penicillin, and 50 μg/ml streptomycin) with a-methyl mannoside and 5% supernatant from Con A-stimulated rat spleen cells. CD8^+ T cells were depleted from the culture by using Dynabeads Mouse CD8 (Invitrogen, Carlsbad, Calif.). The CD4^+ T cells were restimulated every 7 days with C. trachomatis-pulsed bone marrow-derived dendritic cells. Once a C. trachomatis-specific CD4^+ cell line was established, a CD4^+ T cell clone was isolated by limiting dilution.

AALYSTEDL [CT812 peptide tested with CD8+ T cells]
IFN-γ Produced −fold [1]: 0.5 fold
IFN-γ Produced ng [1]: 0.02 (±0.02) ng

AKLECTQDLIAQGKLIVTNP [CT144 peptide tested with CD4+ T cells]
IFN-γ Produced −fold [2]: 35 fold
IFN-γ Produced ng [2]: 1.4 (±0.3) ng

AQGKLIVTNPKSDISFGGRV (listed as Chlamydia trachomatis) [amino acids 67-86 of the CT144 polypeptide]
IFN-γ Produced −fold [2]: 925 fold
IFN-γ Produced ng [2]: 37.0 (±1.8) ng

FQEKDADTL [CT812 peptide tested with CD8+ T cells]
IFN-γ Produced −fold [1]: 2.0 fold
IFN-γ Produced ng [1]: 0.09 (±0.03) ng

FSVTNPVVF (listed as Chlamydia trachomatis) [amino acids 103-111 of the CT812 polypeptide]
IFN-γ Produced −fold [1]: 65 fold
IFN-γ Produced ng [1]: 2.6 (±0.3) ng

FTSSNLDSP [CT812 peptide tested with CD8+ T cells]
IFN-γ Produced −fold [1]: 1.0 fold
IFN-γ Produced ng [1]: 0.04 (±0.01) ng

GQSVNELVY [CT812 peptide tested with CD8+ T cells]
IFN-γ Produced −fold [1]: 0.8 fold
IFN-γ Produced ng [1]: 0.03 (±0.02) ng

KSDISFGGRVNLADNTVNYS (listed as Chlamydia trachomatis) [amino acids 77-96 of the CT144 polypeptide]
IFN-γ Produced −fold [2]: 40 fold
IFN-γ Produced ng [2]: 1.6 (±0.4) ng

LEFASCSSL [CT812 peptide tested with CD8+ T cells]
IFN-γ Produced −fold [1]: 1.5 fold
IFN-γ Produced ng [1]: 0.06 (±0.01) ng

LNQSNLKRM (listed as Chlamydia trachomatis) [amino acids 112-120 of the CT242 polypeptide]
IFN-γ Produced −fold [1]: 160 fold
IFN-γ Produced ng [1]: 6.5 (±2.4) ng

NVTQDLTSSTAKLECTQDLI [CT144 peptide tested with CD4+ T cells]
IFN-γ Produced −fold [2]: 35 fold
IFN-γ Produced ng [2]: 1.4 (±0.3) ng

QSVNELVYV [CT812 peptide tested with CD8+ T cells]
IFN-γ Produced −fold [1]: 0.3 fold
IFN-γ Produced ng [1]: 0.01 (±0.01) ng

SNLKRMQKI [CT242 peptide tested with CD8+ T cells]
IFN-γ Produced −fold [1]: 10 fold
IFN-γ Produced ng [1]: 0.40 (±0.07) ng

SQAEGQYRL [CT812 peptide tested with CD8+ T cells]
IFN-γ Produced −fold [1]: 0.8 fold
IFN-γ Produced ng [1]: 0.03 (±0.3) ng

YQILNQSNL (listed as Chlamydia trachomatis) [amino acids 109-117 of the CT242 polypeptide]
IFN-γ Produced −fold [1]: >5,750 fold
IFN-γ Produced ng [1]: >230 ng
